Measured values taken from EP0715850A1, “Use of proline and/or derivatives as an antihepatitis agent” (RESEARCH DEVELOPMENT CORPORATION OF JAPAN, priority 1994, dated 1996).
Like-named read-outs stand apart in the source and are kept apart here.

Experiments:
[1] = tested on: rats suffering galactosamine induced fulminant hepatitis; details: ten days after galactosamine
Protocol: Because of the similarity of pathological findings to those of human hepatitis and a large number of patients, experiments were carried out on the effect of administration of proline on the survival rate of rats suffering galactosamine induced fulminant hepatitis commonly used as a hepatitis model.
Fisher strain rats (male; eight weeks of age; body weight: 160 to 190 g) were divided into four groups each comprising nine rats. Rats of three groups were administered with 30% galactosamine hydrochloride-saline through intraperitoneal administration (1.4 g/kg body weight) to form fulminant hepatitis models (GalN), and only saline was administered to the remaining group to form a control group.
For 12 hours before and after administration of galactosamine, the rats were fasted, and from 12 hours prior to administration of galactosamine through six hours thereafter, the rats were caused to freely ingest 10% glucose aqueous solution.

[2] = tested on: rats suffering galactosamine induced fulminant hepatitis; details: blood sampled 36 hours after galactosamine; Pre-Pro and Post-Pro groups, proline 2.0 g/kg oral
Protocol: The effect of administration of proline on transamylase activity in blood of rats suffering galactosamine induced fulminant hepatitis was investigated.
Blood was sampled from each of the four groups of rats (GalN, Control, Pre-Pro, and Post-Pro) of Example 1, upon the lapse of 36 hours after administration of galactosamine, and activity of transamylase in blood (glutamic-oxaloacetic acid transamylase: GOT; glutamic-pyruvic acid transamylase: GPT) was measured in accordance with the conventional method.

[3] = tested on: LEC rat which spontaneously develops hepatitis, cirrhosis and hepatoma; assay: death rate and jaundice of LEC rats that spontaneously develop hepatitis; assay type: in vivo
Description: An effect of proline was investigated by using LEC rat which spontaneously develops hepatitis, cirrhosis and hepatoma.
Weanlings of LEC rats (seven weeks of age: food deprived for one week before testing) were divided into 2 groups, and copper deficiency feed and normal feed were presented to the groups, respectively. The rats of 2 groups were further divided into 3 groups: group of free drinking of proline solution (0.2M of proline in distilled water); group of oral administration of proline solution (135-150 mg of proline/day); and group of free drinking of water. Death rate of 6 groups of rats were measured. A relationship between the amount of proline solution consumed by rats and the degree of jaundice of the rats was also measured.

## O=C(O)[C@@H]1CCCN1 [Proline, proline]
[1]; post-administration (Post-Pro) group: proline 2.0 g/kg oral at 6, 12 and 24 hours after galactosamine (1.4 g/kg i.p.), 7/9
  survival rate: 78%
[1]; pre-administration (Pre-Pro) group: proline 2.0 g/kg oral one hour prior to and 12 and 24 hours after galactosamine (1.4 g/kg i.p.), 9/9
  survival rate: 100%
[2]
  increase in the concentration of GOT in blood: largely inhibited
  increase in the concentration of GPT in blood: largely inhibited
[3]; LEC rats ingesting proline solution, Fig. 3
  degree of jaundice: diminished the jaundice
[3]; copper deficiency feed, free drinking of proline solution (0.2M in distilled water)
  Death rate: 0%
[3]; copper deficiency feed, oral administration of proline solution (135-150 mg of proline/day)
  Death rate: 0%
[3]; normal feed, free drinking of proline solution (0.2M in distilled water)
  Death rate: 85%
[3]; normal feed, oral administration of proline solution (135-150 mg of proline/day)
  Death rate: 57%
